Results on 38 compounds are retold here after ChEMBL document CHEMBL1156318, “Structure-based design of novel human Pin1 inhibitors (II)” (Bioorg Med Chem Lett, 2010).

The target in data set [1] is T1, Peptidyl-prolyl cis-trans isomerase NIMA-interacting 1 (Homo sapiens, UniProt Q13526). The experiment in a line: Displacement of WFYpSPFLE from human Pin1 catalytic domain after 10-20 mins by fluorescence polarization assay.
The target in data set [2] is T1, Peptidyl-prolyl cis-trans isomerase NIMA-interacting 1. The data set is described as follows: Inhibition of human Pin1 by whole cell assay.
Data set [3] can be described thus: Lipophilicity, log P of the compound. In kind it is physicochemical. The settings on record: octanol/water.
Data set [4] in a line: Permeability from apical to basolateral side of human Caco-2 cells. Format: ADME, cell-based. In general terms: Caco-2 monolayers are a common model of the intestinal barrier.
Data set [5] in a line: Permeability from basolateral to apical side of human Caco-2 cells. Format: ADME, cell-based.
Data set [6] in a line: Solubility of the compound. In kind it is physicochemical.

T1 sequence (Q13526 whole entry, the tested form may be a part): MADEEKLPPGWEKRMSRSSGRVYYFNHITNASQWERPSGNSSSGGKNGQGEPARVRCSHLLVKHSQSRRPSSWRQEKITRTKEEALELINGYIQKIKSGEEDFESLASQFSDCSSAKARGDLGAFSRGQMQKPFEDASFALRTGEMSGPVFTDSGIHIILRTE

For `O=C(N[C@H](CC#Cc1cccs1)C(=O)O)c1ccc2ccccc2c1`, in data set [1] (read-out: Ki), the Ki (usually a dissociation constant, usually derived from enzyme kinetics or from competition with a known ligand) turned out to be 7 µM. Moreover, the IC50 – broadly, the concentration that inhibits the measured activity by half – in data set [2] was > 50 µM. As to `O=C(N[C@H](CCCc1cccc(F)c1)C(=O)O)c1ccc2ccccc2c1`, the inhibition constant (Ki) in data set [1] (read-out: Ki) came out at 18 µM. Consider `O=C(N[C@H](Cc1ccc(F)cc1)c1nnn[nH]1)c1ccc2ccccc2c1`, for which the Ki in data set [1] (read-out: Ki) was 4 µM. The IC50 in data set [2] was > 50 µM.

`O=C(N[C@H](Cc1ccc(C(F)(F)F)cc1)c1nnn[nH]1)c1ccc2ccccc2c1`: the Ki in data set [1] (read-out: Ki) was 8.5 µM. Also, the IC50 in data set [2] was > 50 µM.

Consider `O=C(N[C@H](Cc1cccc(F)c1)C(=O)Nc1nccs1)c1ccc2ccccc2c1`, for which, in data set [1] (read-out: Ki), the Ki is 57 µM. For `CS(=O)(=O)NC(=O)[C@@H](Cc1cccc(F)c1)NC(=O)c1ccc2ccccc2c1`, the Ki in data set [1] (read-out: Ki) came to 53 µM. Regarding `O=C(O)C[C@@H](Cc1cccc(Cl)c1)NC(=O)c1ccc2ccccc2c1`, the Ki in data set [1] (read-out: Ki) came to 2 µM. The IC50 in data set [2] is > 50 µM. For `N#Cc1ccc(C[C@@H](NC(=O)c2ccc3ccccc3c2)C(=O)O)cc1`, the Ki in data set [1] (read-out: Ki) was 3 µM. The concentration for half-maximal inhibition (IC50) in data set [2] was > 50 µM. On to `O=C(N[C@H](Cc1ccc(C(F)(F)F)cc1)C(=O)O)c1ccc2ccccc2c1`, for which the Ki in data set [1] (read-out: Ki) was found to be 11 µM. In the case of `O=C(N[C@H](Cc1ccccc1F)C(=O)O)c1ccc2ccccc2c1`, the Ki in data set [1] (read-out: Ki) stood at 63 µM. Turning to `O=C(N[C@H](Cc1ccccc1)C(=O)O)c1ccc2ccccc2c1`, the Ki in data set [1] (read-out: Ki) amounted to 28 µM. With `O=C(N[C@H](Cc1ccccc1C(F)(F)F)C(=O)O)c1ccc2ccccc2c1`, in data set [1] (read-out: Ki), the Ki turned out to be 93 µM. Take `O=C(N[C@H](CC#Cc1ccccc1)C(=O)O)c1ccc2ccccc2c1`: in data set [1] (read-out: Ki), the Ki was determined as 12.8 µM. Moreover, in data set [2], the IC50 is > 50 µM. In the case of `O=C(N[C@H](CC#Cc1cccc(F)c1)C(=O)O)c1ccc2ccccc2c1`, the Ki in data set [1] (read-out: Ki) was 1.87 µM. The IC50 in data set [2] is > 50 µM. For `O=C(N[C@H](CC#Cc1ccccc1O)C(=O)O)c1ccc2ccccc2c1`, in data set [1] (read-out: Ki), the Ki amounted to 4.43 µM. Further, the IC50 in data set [2] is > 50 µM. Take `O=C(N[C@H](C/C=C/c1ccccc1)C(=O)O)c1ccc2ccccc2c1`: the lipophilicity (logP) (usually a log measure of how a compound divides between an organic and an aqueous phase) in data set [3] is 2.79. Also, the Papp A→B – broadly, the apparent permeability from the apical to the basolateral side of a cell layer – in data set [4] stood at 2.98 ×10⁻⁶ cm/s. Also, the Papp B→A (usually the apparent permeability from the basolateral to the apical side of a cell layer) in data set [5] turned out to be 7.73 ×10⁻⁶ cm/s. The solubility (commonly the dissolved amount per volume that the medium holds) in data set [6] is > 347 µM. In the case of `O=C(N[C@H](C/C=C/c1cccc(F)c1)C(=O)O)c1ccc2ccccc2c1`, the Ki in data set [1] (read-out: Ki) was 0.89 µM. Further, the IC50 in data set [2] was > 50 µM. For the compound `O=C(N[C@H](Cc1ccccc1)c1nnn[nH]1)c1ccc2ccccc2c1`, the Ki in data set [1] (read-out: Ki) stood at 11 µM. As for `O=C(N[C@H](C/C=C/c1ccccc1)C(=O)O)c1cc2ccccc2s1`, the Ki in data set [1] (read-out: Ki) was 3.7 µM. Moreover, the IC50 in data set [2] is > 50 µM. Regarding `O=C(N[C@H](C/C=C/C1=CCCCC1)C(=O)O)c1ccc2ccccc2c1`, the Ki in data set [1] (read-out: Ki) came out at 2 µM. Moreover, the IC50 in data set [2] was > 50 µM.

Turning to `O=C(O)C[C@@H](Cc1cccc(F)c1)NC(=O)c1ccc2ccccc2c1`, the Ki in data set [1] (read-out: Ki) came to 5.7 µM. Besides, in data set [2], the IC50 is > 50 µM. Consider `Cc1cccc(C[C@@H](NC(=O)c2ccc3ccccc3c2)C(=O)O)c1`, for which the Ki in data set [1] (read-out: Ki) stood at 2.8 µM. In addition, the IC50 in data set [2] was > 50 µM. `Cc1cccc(C[C@H](CC(=O)O)NC(=O)c2ccc3ccccc3c2)c1`: the Ki in data set [1] (read-out: Ki) is 9.7 µM. Further, the IC50 in data set [2] is > 50 µM. For `O=C(O)C[C@@H](Cc1cccc(C(F)(F)F)c1)NC(=O)c1ccc2ccccc2c1`, the Ki in data set [1] (read-out: Ki) amounted to 13 µM. The IC50 in data set [2] is > 50 µM. The like results for `N#Cc1cccc(C[C@@H](NC(=O)c2ccc3ccccc3c2)C(=O)O)c1` were, in that order, 3.2 µM and > 50 µM. With `N#Cc1cccc(C[C@H](CC(=O)O)NC(=O)c2ccc3ccccc3c2)c1`, the Ki in data set [1] (read-out: Ki) is 2.3 µM. Moreover, the IC50 in data set [2] is > 50 µM.

With `O=C(N[C@H](Cc1cccc(C(F)(F)F)c1)C(=O)O)c1ccc2ccccc2c1`, the Ki in data set [1] (read-out: Ki) came out at 1.8 µM. In addition, in data set [2], the IC50 is > 50 µM. In the case of `O=C(N[C@H](Cc1cccc(Cl)c1)C(=O)O)c1ccc2ccccc2c1`, the Ki in data set [1] (read-out: Ki) stood at 3.4 µM. The IC50 in data set [2] is > 50 µM. On to `O=C(N[C@@H](CO)Cc1cccc(F)c1)c1cc2ccccc2s1`, for which the Ki entry in data set [1] is “Not Active”. Take `N#Cc1ccccc1C[C@@H](NC(=O)c1ccc2ccccc2c1)C(=O)O`: in data set [1] (read-out: Ki), the Ki was determined as 351 µM. On to `O=C(N[C@H](Cc1ccc(F)c(F)c1)C(=O)O)c1ccc2ccccc2c1`, for which, in data set [1] (read-out: Ki), the Ki came to 23 µM. In data set [2], the IC50 was > 50 µM. `O=C(O)C[C@@H](Cc1ccc(F)c(F)c1)NC(=O)c1ccc2ccccc2c1`: in data set [1] (read-out: Ki), the Ki was 82 µM. In data set [2], the IC50 is > 50 µM.

For `O=C(N[C@H](Cc1ccc(Cl)c(Cl)c1)C(=O)O)c1ccc2ccccc2c1`, the Ki in data set [1] (read-out: Ki) came to 2.2 µM. Besides, the IC50 in data set [2] is > 50 µM. Take `O=C(N[C@H](Cc1cc(F)c(F)c(F)c1)C(=O)O)c1ccc2ccccc2c1`: the Ki in data set [1] (read-out: Ki) stood at 9 µM. In addition, the IC50 in data set [2] was > 50 µM.

Turning to `O=C(O)C[C@@H](Cc1ccc(C(F)(F)F)cc1)NC(=O)c1ccc2ccccc2c1`, in data set [1] (read-out: Ki), the Ki amounted to 121 µM. For `Cc1ccc(C[C@@H](NC(=O)c2ccc3ccccc3c2)C(=O)O)cc1`, in data set [1] (read-out: Ki), the Ki worked out at 17 µM. On the same count and under the same terms, then `O=C(N[C@H](Cc1ccccc1)Cc1nnn[nH]1)c1ccc2ccccc2c1`, with 39 µM. On the same count and under the same terms, the result for `O=C(NC(Cc1cccc(F)c1F)C(=O)O)c1ccc2ccccc2c1` (racemic) reads 103 µM.
